Experiments:
Format in all cases: cell-based
[1] = system: A431 (epidermoid carcinoma); test: Antiproliferative activity (CCK-8 cell viability), A431; conditions: Homo sapiens, 72 h, read-out: Antiproliferative activity in cancerous cells, A431 (inhibition of cell growth); for inhibition at 3.3 µM: A-431, Compound concentration: 3.3 μM; for inhibition at 10 µM: A-431, Compound concentration: 10 μM; for inhibition at 30 µM: A-431, Compound concentration: 30 μM
Summary of the method: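 A431 epidermoid carcinoma cells grown in DMEM with 10% FBS were plated at 2,000-5,000 cells/well in 96-well plates. After attachment they were exposed to compound at 3.3 μM, 10 μM, or 30 μM for 72 h at 37° C. Viability was then assessed by CCK-8 against DMSO vehicle-treated wells.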

[2] = system: A549 (lung adenocarcinoma); test: Antiproliferative activity (CCK-8 cell viability), A549; conditions: Homo sapiens, 72 h, read-out: Antiproliferative activity in cancerous cells, A549 (inhibition of cell growth); for inhibition at 3.3 µM: Compound concentration: 3.3 μM; for inhibition at 10 µM: Compound concentration: 10 μM; for inhibition at 30 µM: Compound concentration: 30 μM
Summary of the method: (§1)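 Cells grown in DMEM (HepG2, SW480), MEM (HeLa) or F-12K (A549), each with 10% FBS, then exposed to compound at 3.3, 10 or 30 μM for 72 h at 37 °C. CCK-8 absorbance at 450 nm; viability expressed as percent of DMSO-treated cells, graded as growth inhibition bands.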

[3] = system: HeLa (cervical cancer); test: Antiproliferative activity (CCK-8 cell viability), HeLa; conditions: Homo sapiens, 72 h, read-out: Antiproliferative activity in cancerous cells, HELA (inhibition of cell growth); for inhibition at 3.3 µM: Compound concentration: 3.3 μM; for inhibition at 10 µM: Compound concentration: 10 μM; for inhibition at 30 µM: Compound concentration: 30 μM
Summary of the method: as §1

[4] = system: MDA-MB-231 (breast cancer); test: Antiproliferative activity (CCK-8 cell viability), MDA-MB-231; conditions: Homo sapiens, 72 h, read-out: Antiproliferative activity in cancerous cells, MDA-MB-231 (inhibition of cell growth); for inhibition at 3.3 µM: Compound concentration: 3.3 μM; for inhibition at 10 µM: Compound concentration: 10 μM; for inhibition at 30 µM: Compound concentration: 30 μM
Summary of the method: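 MDA-MB-231 breast cancer cells, grown in DMEM with 10% FBS, were plated in 96-well plates at 2,000-5,000 cells/well. Once attached, they were exposed to compound and incubated at 37° C. for 72 h. Viability was then measured with CCK-8 (10 μL per well, 4 h at 37° C.) by absorbance at 450 nm, relative to DMSO vehicle wells.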

[5] = system: B16F10 (malignant melanoma); test: Antiproliferative activity (CCK-8 cell viability), B16F10; conditions: Mus musculus, 72 h, read-out: Antiproliferative activity in cancerous cells, B16F10 (inhibition of cell growth); for inhibition at 3.3 µM: B16-F10, Compound concentration: 3.3 μM; for inhibition at 10 µM: B16-F10, Compound concentration: 10 μM; for inhibition at 30 µM: B16-F10, Compound concentration: 30 μM
Summary of the method: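 B16F10 melanoma cells grown in DMEM with 10% FBS were plated in 96-well plates at 2,000-5,000 cells/well. After attachment they were exposed to compound in medium for 72 h at 37° C. CCK-8 solution (10 μL) was then added, and after 4 h at 37° C absorbance was read at 450 nm.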

[6] = system: HepG2 (liver cancer); test: Antiproliferative activity (CCK-8 cell viability), HepG2; conditions: Homo sapiens, 72 h, read-out: Antiproliferative activity in cancerous cells, HepG2 (inhibition of cell growth); for inhibition at 3.3 µM: Compound concentration: 3.3 μM; for inhibition at 10 µM: Compound concentration: 10 μM; for inhibition at 30 µM: Compound concentration: 30 μM
Summary of the method: as §1

[7] = system: SW480 (colon cancer); test: Antiproliferative activity (CCK-8 cell viability), SW480; conditions: Homo sapiens, 72 h, read-out: Antiproliferative activity in cancerous cells, SW480 (inhibition of cell growth); for inhibition at 3.3 µM: Compound concentration: 3.3 μM; for inhibition at 10 µM: Compound concentration: 10 μM; for inhibition at 30 µM: Compound concentration: 30 μM
Summary of the method: as §1

| Compound | inhibition at 3.3 µM [1] [%] | inhibition at 10 µM [1] [%] | inhibition at 30 µM [1] [%] | inhibition at 3.3 µM [2] [%] | inhibition at 10 µM [2] [%] | inhibition at 30 µM [2] [%] | inhibition at 3.3 µM [3] [%] | inhibition at 10 µM [3] [%] | inhibition at 30 µM [3] [%] | inhibition at 3.3 µM [4] [%] | inhibition at 10 µM [4] [%] | inhibition at 30 µM [4] [%] | inhibition at 3.3 µM [5] [%] | inhibition at 10 µM [5] [%] | inhibition at 30 µM [5] [%] | inhibition at 3.3 µM [6] [%] | inhibition at 10 µM [6] [%] | inhibition at 30 µM [6] [%] | inhibition at 3.3 µM [7] [%] | inhibition at 10 µM [7] [%] | also measured |
| --- | --- | --- | --- | --- | --- | --- | --- | --- | --- | --- | --- | --- | --- | --- | --- | --- | --- | --- | --- | --- | --- |
| CC1=C(CC(=O)O)c2cc(F)ccc2/C1=C/c1cccc(Oc2cccc(Cl)c2)c1 [E26, (E)-2-(1-(3-(3-Chlorophenoxy)benzylidene)-5-fluoro-2-methyl-1H-inden-3-yl)acetic acid] | < 30 | ≥ 50 | ≥ 50 | < 30 | < 30 | ≥ 50 | < 30 | ≥ 50 | ≥ 50 | < 30 | < 30 | ≥ 50 | < 30 | < 30 | ≥ 50 | < 30 | ≥ 50 | ≥ 50 | < 30 | < 30 | inhibition at 30 µM [7]: ≥ 50% |
| CC1=C(CC(=O)O)c2cc(F)ccc2/C1=C\c1ccc(COCc2ccccc2)cc1 [B104, (Z)-2-(1-(4-((Benzyloxy)methyl)benzylidene)-5-fluoro-2-methyl-1H-inden-3-yl)-acetic acid] | ≥ 50 | ≥ 50 | – | 30 to 50 | 30 to 50 | – | ≥ 50 | ≥ 50 | – | 30 to 50 | ≥ 50 | – | ≥ 50 | ≥ 50 | – | < 30 | ≥ 50 | – | ≥ 50 | ≥ 50 | – |
| CC1=C(CC(=O)O)c2cc(F)ccc2/C1=C\c1ccc(CCCc2ccc(O)cc2)cc1 [B129, (Z)-2-(5-Fluoro-1-(4-(3-(4-hydroxyphenyl)propyl)benzylidene)-2-methyl-1H-inden-3-yl)acetic acid] | < 30 | ≥ 50 | – | 30 to 50 | ≥ 50 | – | < 30 | ≥ 50 | – | ≥ 50 | ≥ 50 | – | ≥ 50 | ≥ 50 | – | < 30 | ≥ 50 | – | < 30 | < 30 | – |
| CC1=C(CC(=O)O)c2cc(Cl)ccc2/C1=C/c1ccc(Oc2ccc(F)cc2)cc1 [E41, (E)-2-(5-Chloro-1-(4-(4-fluorophenoxy)benzylidene)-2-methyl-1H-inden-3-yl)acetic acid] | ≥ 50 | ≥ 50 | ≥ 50 | < 30 | 30 to 50 | ≥ 50 | < 30 | ≥ 50 | ≥ 50 | < 30 | ≥ 50 | ≥ 50 | < 30 | ≥ 50 | ≥ 50 | < 30 | ≥ 50 | ≥ 50 | 30 to 50 | ≥ 50 | inhibition at 30 µM [7]: ≥ 50% |

From patent publication US20260184663A1, “INDENE COMPOUNDS, PHARMACEUTICAL COMPOSITIONS THEREOF, AND THEIR THERAPEUTIC APPLICATIONS” (NucMito Pharmaceuticals co. Ltd., priority 2022, published 2026)
